Results taken from patent US8846012B2, “Melanin production inhibitor” (Pola Chemical Industries Inc., priority 2008, dated 2014).
Converted amounts (≈) assume the structure as drawn. Where two headings read alike, the source gives them in different places. Each block holds one compound with its values, some of them ahead of it.

Experiments:
[1] = system: Trichopyton mentagrophytes (ATCC18748); test: Measurement of antimycotic activity (Alamar Blue growth inhibition of dermatophytes); format: cell-based; conditions: for growth inhibitory effect on Trichopyton mentagrophytes (in words): added at a concentration of 100 μg/mL; for MIC80: read-out: MIC80 Concentration; for inhibition at 0.1563 µg/mL / inhibition at 0.3125 µg/mL / inhibition at 0.625 µg/mL / inhibition at 1.25 µg/mL / inhibition at 2.5 µg/mL / inhibition at 5 µg/mL / inhibition at 10 µg/mL / inhibition at 100 µg/mL: read-out: Growth inhibition rate
Experimental: 10.4 g of RPMI1640 (manufactured by SAFC Biosciences) were dissolved in 900 mL of distilled water, and 34.53 g of a 0.165 M MOPS buffer (manufactured by DOJINDO LABORATORIES) were added and dissolved by stirring.
Dermatophytes (Trichopyton mentagrophytes (ATCC18748)) were inoculated into a 1/10 Sabouraud Dextrose agar medium (manufactured by DIFCO) and cultured at 28° C. for 14 days, and then a conidial suspension was prepared using 0.1% Tween80-including physiological saline. The suspension was filtered through gauze, and the number of the conidia was counted using a hemocytometer and then adjusted to 2.5×10^5/mL with the RPMI1640 medium. The resultant suspension was used as an inoculum.
Compound 5 and clotrimazole were diluted with the RPMI1640 medium to prepare 0.3125, 0.625, 1.25, 2.5, 5, 10, 20, and 200 μg/mL diluted solutions. The diluted solutions having different concentrations were dispensed into a 96-well flat-bottom microplate in an amount of 100 μL per well, and 80 μL of the inoculum and 20 μL of an Alamar Blue solution (manufactured by Nalgene) were further added thereto. Further, 80 μL of the inoculum and 20 μL of the Alamar Blue solution were added to 100 μL of the RPMI1640 medium in growth control wells, and 20 μL of the Alamar Blue solution was added to 180 μL of the RPMI1640 medium in negative control wells. The microplate was placed in a chamber in which the humidity was kept constant, and culture was started at 27° C., and the cells were observed every 24 hours. 120 hours from beginning of culture, i.e., when the growth control became obviously red (reduced form), absorbance measurement at 570 nm was performed using a microplate reader (SPECTRAMAX 250, manufactured by Molecular Device).
The test compounds were tested at the respective concentrations in triplicate. The growth inhibition rate (%) of each of the test compound-added groups was determined by the following equation based on a value calculated by subtracting an average absorbance value of the negative control from an average absorbance value of the growth control and the test compound-added wells. Further, […] (minimum inhibitory concentration; the minimum concentration at which the growth inhibition rate is 80% or more) was calculated from the growth inhibition rate of each test compound. Growth inhibition rate (%)=[1−(average absorbance value in test compound-added wells-average absorbance value of negative control)/(average absorbance value of growth control-average absorbance value of negative control)]×100
Compound 1, Compounds 3 to 6, Compound 40, Compound 41, triphenylmethylamine, triphenylmethanol, triphenylmethane, aminodiphenylmethane, and clotrimazole were diluted with the RPMI1640 medium to prepare 0.3125, 0.625, 1.25, 2.5, 5, 10, 20, and 200 μg/mL diluted solutions. The diluted solutions having different concentrations were dispensed into a 96-well flat-bottom microplate in an amount of 100 μl, per well, and 80 μL of the inoculum and 20 μl, of an Alamar Blue solution (manufactured by Nalgene) were further added thereto. Further, 80 μl, of the inoculum and 20 μl, of the Alamar Blue solution were added to 100 μL of the RPMI1640 medium in growth control wells, and 20 μL of the Alamar Blue solution was added to 180 μL of the RPMI1640 medium in negative control wells. The microplate was placed in a chamber in which the humidity was kept constant, and then culture was started at 27° C., and the cells were observed every 24 hours. 120 hours from beginning of culture, i.e., when the growth control became obviously red (reduced form), absorbance measurement at 570 nm was performed using a microplate reader (SPECTRAMAX 250, manufactured by Molecular Device).
The test compounds were tested at the respective concentrations in triplicate. […]

normal human melanocytes = test: Melanin production inhibition test using cultured normal human melanocytes (14C-thiouracil incorporation); format: cell-based; conditions: for activity at 2 µM: addition amount 2.0 μM; for activity at 20 µM: treatment concentration 20 μM; for activity at 15 µM: treatment concentration 15 μM
Experimental: The inhibitory effect on melanin production of the melanin production inhibitor of the present invention can be measured using thiouracil which is incorporated specifically into cells in a melanin synthesis process in the cells. For example, the amount of melanin production can be measured by measuring an amount of thiouracil incorporated into cells by measuring an amount of radiation with radiolabeled thiouracil.
The inhibitory effect on melanin production of Compound 1 was evaluated using 2-thiouracil (^14C-labeled 2-thiouracil was used in this test) which is incorporated specifically into melanin in an intracellular melanin synthesis process. Complete medium for culture of melanocytes (manufactured by Kurabo Industries Ltd.) was added to 15 wells in a 24-well plate in an amount of 2 mL per well, and normal human melanocytes (manufactured by Kurabo Industries Ltd.) were seeded into the wells at a concentration of 1.5×10^4 cells/cm^2. The cells were cultured in a 5% carbon dioxide atmosphere at 37° C. for 24 hours. Thereafter, the medium in all the wells was exchanged under the following conditions: fresh complete medium for culture of melanocytes (control) was used in three wells; each of complete medium for culture of melanocytes, which including Compound 1 at concentrations of 1.0 μM, 2.0 μM, and 4.0 μM, was used in a total of nine wells including three wells for each concentration; and complete medium for culture of melanocytes, each of which including arbutin (positive control) known as a melanin production inhibitor at a concentration of 0.5 mM (500 μM), was used in the other three wells. Further, 2-[2-^14C]thiouracil (^14C-labeled thiouracil) was added to each of these 15 wells at 0.25×10^−6 Ci (curie). Then, the cells were cultured for further 3 days under the same conditions as the above. After the completion of culture, the culture medium was removed from the wells, and the cells were washed with phosphate buffered physiological saline (PBS) and then separated from the bottoms of the wells with medium including trypsin and EDTA to prepare cell suspensions, followed by centrifugation to collect the cells. The number of the cells was counted using a hemocytometer. Thereafter, the amounts of ^14C-thiouracil in the cells collected from each well (0.25×10^−6 Ci) were measured using a liquid scintillation counter (ALOKA CO., LTD.). The percentages of an amount of radioactivity in the cells cultured in the medium including the test substances with respect to an amount of radioactivity in the cells collected from the well of the control were calculated as amounts of melanin (%). That is, as the amount of radioactivity incorporated into the cells is smaller, the amount of melanin is evaluated to be smaller, i.e., the melanin inhibition effect of the component added is evaluated to be larger.
Inhibitory effects on melanin production of Compounds 2 to 39 (however, the effects of Compound 9 and 15 were not measured) were examined in the same procedure as in Test Example 1.
These were examined in the same procedure as in Test Example 1.
Further, the results of melanin production inhibition by treatment with the respective test compounds, determined in the same procedure as in Test Example 1, are also shown in the table.

[2] = minimum concentration at which the growth inhibition rate is 80% or more
[3] = Homo sapiens, Melanocyte, Table 7, treatment concentration 4 μM, read-out: Amount of melanin
[4] = Homo sapiens, Melanocyte, Table 7, read-out: Amount of melanin

- MIC80 [1, 2]: 10 µg/mL (≈ 32.1 µM)
Compound: c1ccc(C(c2ccccc2)(c2ccncc2)n2ccnc2)cc1 [Compound 40, 1-[(diphenylpyridyl)methyl]imidazole]
- activity at 20 µM (normal human melanocytes; [4]): 44.7 ± 4.2%

- MIC80 [1, 2]: 5 µg/mL (≈ 19.1 µM)
Compound: Cc1ccc(C(c2ccc(C)cc2)n2ccnc2)cc1 [Compound 41]
- activity at 15 µM (normal human melanocytes; [4]): 34.1 ± 2.58%

- MIC80 Concentration [1, 2]: 100.0000 µg/mL (≈ 384 µM)
- MIC80 [1, 2]: 100 µg/mL (≈ 384 µM)
Compound: OC(c1ccccc1)(c1ccccc1)c1ccccc1 [Triphenylmethanol]
- activity at 7.5 µM (normal human melanocytes; Homo sapiens, Melanocyte, Table 3, addition amount 7.5 μM, control = 100%): 41.3 ± 2.8%
- activity at 15 µM (normal human melanocytes; [4]): 31.6 ± 2.39%

- MIC80 [1, 2]: > 100 µg/mL
Compound: NC(c1ccccc1)(c1ccccc1)c1ccccc1 [Triphenylmethylamine]
- growth inhibitory effect on Trichopyton mentagrophytes (in words) [1]: no growth inhibitory effect
- activity at 12.5 µM (normal human melanocytes; Homo sapiens, Melanocyte, Table 3, addition amount 12.5 μM, control = 100%): 57.3 ± 1.6%
- activity at 20 µM (normal human melanocytes; [4]): 23 ± 2.41%

The remaining lines, values behind:

Compound: NC(c1ccccc1)c1ccccc1 [Aminodiphenylmethane]
- growth inhibitory effect on Trichopyton mentagrophytes (in words) [1]: no growth inhibitory effect
- MIC80 [1, 2]: > 100 µg/mL
- activity at 40 µM (normal human melanocytes; Homo sapiens, Melanocyte, Table 3, addition amount 40 μM, control = 100%): 36.6 ± 12.8%
- activity at 50 µM (normal human melanocytes; Homo sapiens, Melanocyte, Table 7, treatment concentration 50 μM, read-out: Amount of melanin): 28.8 ± 2.03%

Compound: Clc1ccccc1C(c1ccccc1)(c1ccccc1)n1ccnc1 [Clotrimazole, clotrimazole, reference compound]
- inhibition at 0.1563 µg/mL ([1]; concentration 0.1563 μg/mL, 120 hours): 27%
- inhibition at 0.3125 µg/mL ([1]; concentration 0.3125 μg/mL, 120 hours): 53%
- inhibition at 0.625 µg/mL ([1]; concentration 0.6250 μg/mL, 120 hours): 82.5%
- inhibition at 1.25 µg/mL ([1]; concentration 1.2500 μg/mL, 120 hours): 92.2%
- inhibition at 2.5 µg/mL ([1]; concentration 2.5000 μg/mL, 120 hours): 93.4%
- inhibition at 5 µg/mL ([1]; concentration 5.0000 μg/mL, 120 hours): 85.4%
- inhibition at 10 µg/mL ([1]; concentration 10.0000 μg/mL, 120 hours): 92.2%
- inhibition at 100 µg/mL ([1]; concentration 100.0000 μg/mL, 120 hours): 88.9%
- MIC80 [1, 2]: 0.625 µg/mL (≈ 1.81 µM)
- activity at 2.5 µM (normal human melanocytes; Homo sapiens, Melanocyte, Table 7, treatment concentration 2.5 μM, read-out: Amount of melanin): 23.2%
- Amount of melanin (normal human melanocytes; Table 7, treatment concentration 2.5 μM): 23.2 ± 2.03 %/control

Compound: c1ccc(C(c2ccccc2)(c2ccccc2)n2ccnc2)cc1 [Compound 1, 1-(triphenylmethyl)imidazole]
- MIC80 [1, 2]: 0.625 µg/mL (≈ 2.01 µM)
- inhibitory effect of melanin production relative to that of arbutin (normal human melanocytes; 1.0 μM Compound 1 compared with 0.5 mM arbutin): ≥ 100 times
- activity at 1 µM (normal human melanocytes; Homo sapiens, Melanocyte, addition amount 1.0 μM, control = 100%, mean ± SD of three samples): 63.8 ± 3.6%
- activity at 2 µM (normal human melanocytes; Homo sapiens, Melanocyte, control = 100%, mean ± SD of three samples): 37 ± 5.3%
- activity at 4 µM (normal human melanocytes; Homo sapiens, Melanocyte, addition amount 4.0 μM, control = 100%, mean ± SD of three samples): 29.2 ± 2.9%
- activity at 4 µM (normal human melanocytes; [3]): 29.5 ± 2.5%

Compound: c1ccc(C(c2ccccc2)(c2ccccc2)N2CCCCC2)cc1 [Compound 5, 1-(triphenylmethyl)piperidine]
- inhibition at 0.1563 µg/mL ([1]; 120 h): -4.5%
- inhibition at 0.3125 µg/mL ([1]; 120 h): 8%
- inhibition at 0.625 µg/mL ([1]; 120 h): -2.7%
- inhibition at 1.25 µg/mL ([1]; 120 h): 3.1%
- inhibition at 2.5 µg/mL ([1]; 120 h): -4.5%
- inhibition at 5 µg/mL ([1]; 120 h): -17.5%
- inhibition at 10 µg/mL ([1]; 120 h): -14.4%
- inhibition at 100 µg/mL ([1]; 120 h): 13.2%
- MIC80 [1]: > 100 µg/mL
- activity at 1.5 µM (normal human melanocytes; Homo sapiens, Melanocyte, Table 2, addition amount 1.5 μM, control = 100%): 37.7 ± 0.8%
- activity at 4 µM (normal human melanocytes; [3]): 16.8 ± 0.96%

Compound: c1ccc(C(c2ccccc2)(c2ccccc2)N2CCCC2)cc1 [Compound 6, 1-(triphenylmethyl)pyrrolidine]
- growth inhibitory effect on Trichopyton mentagrophytes (in words) [1]: no growth inhibitory effect
- MIC80 [1]: > 100 µg/mL
- activity at 2 µM (normal human melanocytes; Homo sapiens, Melanocyte, Table 2, control = 100%): 32.6 ± 4.1%
- activity at 4 µM (normal human melanocytes; [3]): 17.2 ± 0.8%

Compound: Cc1ccc(C(O)c2ccc(C)cc2)cc1 [Compound 14, [bis(4-methylphenyl)]methanol]
- MIC80 Concentration [1, 2]: 100.0000 µg/mL (≈ 471 µM)
- MIC80 [1, 2]: 100 µg/mL (≈ 471 µM)
- activity at 25 µM (normal human melanocytes; Homo sapiens, Melanocyte, Table 2, addition amount 25 μM, control = 100%): 44.6 ± 5.6%
- activity at 40 µM (normal human melanocytes; Homo sapiens, Melanocyte, Table 7, treatment concentration 40 μM, read-out: Amount of melanin): 37.9 ± 1.39%

Compound: c1ccc(C(c2ccccc2)c2ccccc2)cc1 [Triphenylmethane]
- growth inhibitory effect on Trichopyton mentagrophytes (in words) [1]: no growth inhibitory effect
- MIC80 [1]: > 100 µg/mL
- activity at 15 µM (normal human melanocytes; [4]): 32.2 ± 1.82%
- activity at 10 µM (normal human melanocytes; Homo sapiens, Melanocyte, Table 3, addition amount 10 μM, control = 100%): 42.3 ± 1.4%
